These results are taken from patent publication US20120202794A1 (priority 2011, published 2012).

One series concerns HCV Replicon 1b. The experiment in a line: HCV inhibition assay, HCV replicon 1b (Clone A or ET-lunet cells; RT-PCR or luciferase reporter). In kind it is cell-based. As to conditions: Hepatitis C virus, 96 h, HCV replicon 1b; 4 days incubation; read-out: Replicon 1b potency EC90. In outline: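 Inhibition read either as luciferase signal (ET replicon) or as HCV 5′-NTR RNA by RT-PCR relative to rRNA, % = (1−2^−ΔΔCt)×100, against DMSO controls, giving EC50 and EC90. Cells: Clone A or ET-lunet, seeded 1500 or 3000/well, exposed 4 days at 37 °C, 5% CO2, 0.5% DMSO.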

Series [1] is described as follows: Cell cytotoxicity assay (MTS), CC90 as reported in Table 1, cell line not stated. The format is cell-based. As to conditions: human; MTS assay; 8 days incubation; cell line not given. A digest of the protocol:
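MTS read-out (490 nm, 2 h dye step) after 8-day exposure at 37° C. Huh7, HepG2, BxPC3 were seeded at 2×10^3 and CEM at 5×10^3 cells/well, with compound serially diluted from 100 μM. CC90 comes from comparison with untreated control wells.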

The structures appear in SMILES notation.

For the molecule `C/C=C/[C@H]1CN(C(=O)/C=C/c2ccc(F)cc2F)[C@@H](CC(C)C)C(=O)N1` [Compound 449, (3S,6S)-4-((E)-3-(2,4-difluorophenyl)acryloyl)-3-isobutyl-6-((E)-prop-1-en-1-yl)piperazin-2-one], the EC90 in the series on HCV Replicon 1b amounted to 1190 nM. The CC90 at 8 days in series [1] is more than 10000 nM.
For `CC(C)C[C@H]1C(=O)N[C@@H](c2ccsc2)CN1C(=O)c1cc(-c2ccc(F)cc2)no1` [Compound 450, (3S,6S)-4-(3-(4-fluorophenyl)isoxazole-5-carbonyl)-3-isobutyl-6-(thiophen-3-yl)piperazin-2-one] the same measures were 59 nM and more than 10000 nM.
Taken in the same sequence, the figures for `CC(C)C[C@H]1C(=O)N[C@@H](c2ccsc2)CN1C(=O)/C=C/c1ccc(F)cc1F` [Compound 451, (3S,6S)-4-((E)-3-(2,4-difluorophenyl)acryloyl)-3-isobutyl-6-(thiophen-3-yl)piperazin-2-one] were 125 nM and more than 10000 nM.
`C/C=C/[C@H]1CN(C(=O)[C@@H]2C[C@H]2c2ccc(F)cc2)[C@@H](CC(C)C)C(=O)N1` [Compound 452, (3S,6S)-4-((1R,2R)-2-(4-fluorophenyl)cyclopropanecarbonyl)-3-isobutyl-6-((E)-prop-1-en-1-yl)piperazin-2-one]: in the series on HCV Replicon 1b, the 90% effect concentration (EC90) turned out to be 48 nM. The CC90 at 8 days in series [1] is more than 10000 nM.
For `Cc1ccc([C@H]2CN(C(=O)c3cc(-c4ccc(F)cc4)on3)[C@@H](CC(C)C)C(=O)N2)s1` [Compound 453, (3S,6R)-4-(5-(4-fluorophenyl)isoxazole-3-carbonyl)-3-isobutyl-6-(5-methylthiophen-2-yl)piperazin-2-one] the same measures were 680 nM and more than 10000 nM.
In the case of `CC(C)C[C@H]1C(=O)NC(C2CCOCC2)CN1C(=O)c1cc(-c2ccc(F)cc2)on1` (stereo partly drawn) [Compound 456, (3S)-4-(5-(4-fluorophenyl)isoxazole-3-carbonyl)-3-isobutyl-6-(tetrahydro-2H-pyran-4-yl)piperazin-2-one], the EC90 with HCV Replicon 1b was determined as 194 nM. Also, the CC90 at 8 days in series [1] is more than 10000 nM.
Regarding `CSC[C@H]1C(=O)N[C@@H](c2ccccc2)CN1C(=O)[C@@H]1C[C@H]1c1ccc(F)cc1` [Compound 460, (3R,6S)-4-((1R,2R)-2-(4-fluorophenyl)cyclopropanecarbonyl)-3-((methylthio)-methyl)-6-phenylpiperazin-2-one], the concentration for an effect of 90% (EC90) in the series with HCV Replicon 1b amounted to 1160 nM. Moreover, in series [1], the CC90 at 8 days was more than 10000 nM.
For the molecule `C=CC[C@H]1C(=O)N[C@@H](c2ccccc2)CN1C(=O)[C@@H]1C[C@H]1c1ccc(F)cc1` [Compound 462, (3S,6S)-3-allyl-4-((1R,2R)-2-(4-fluorophenyl)cyclopropanecarbonyl)-6-phenyl-piperazin-2-one], in the series on HCV Replicon 1b, the EC90 worked out at 1520 nM. Also, the CC90 at 8 days in series [1] is more than 10000 nM.
For `CC(C)C[C@H]1C(=O)N[C@@H](C2CCC2)CN1C(=O)[C@@H]1C[C@H]1c1ccc(F)cc1` [Compound 464, (3S,6S)-6-cyclobutyl-4-((1R,2R)-2-(4-fluorophenyl)cyclopropanecarbonyl)-3-isobutylpiperazin-2-one] the same measures were 830 nM and more than 10000 nM.
Take `C=CC[C@H]1C(=O)N[C@@H](c2ccccc2)CN1C(=O)c1noc(-c2ccc(F)cc2)n1` [Compound 465, (3S,6S)-3-allyl-4-(5-(4-fluorophenyl)-1,2,4-oxadiazole-3-carbonyl)-6-phenyl-piperazin-2-one]: the EC90 with HCV Replicon 1b was 290 nM. In series [1], this molecule returned a CC90 at 8 days of more than 10000 nM.
Taken in the same sequence, the figures for `CSC[C@H]1C(=O)N[C@@H](c2ccccc2)CN1C(=O)c1noc(-c2ccc(F)cc2)n1` [Compound 466, (3R,6S)-4-(5-(4-fluorophenyl)-1,2,4-oxadiazole-3-carbonyl)-3-((methylthio)methyl)-6-phenylpiperazin-2-one] were 650 nM and more than 10000 nM.
Taken in the same sequence, the figures for `CC(C)C[C@H]1C(=O)N[C@@H](C2CCC2)CN1C(=O)c1noc(-c2ccc(F)cc2)n1` [Compound 467, (3S,6S)-6-cyclobutyl-4-(5-(4-fluorophenyl)-1,2,4-oxadiazole-3-carbonyl)-3-isobutylpiperazin-2-one] were 250 nM and more than 10000 nM.
For the molecule `CSC[C@H]1C(=O)N[C@@H](c2ccccc2)CN1C(=O)c1cc(-c2ccc(F)cc2)on1` [Compound 468, (3R,6S)-4-(5-(4-fluorophenyl)isoxazole-3-carbonyl)-3-((methylthio)methyl)-6-phenylpiperazin-2-one], the EC90 in the series on HCV Replicon 1b is 690 nM. This molecule displayed a CC90 at 8 days in series [1] of more than 10000 nM.
Taken in the same sequence, the figures for `O=C1N[C@@H](c2ccccc2)CN(C(=O)[C@@H]2C[C@H]2c2ccc(F)cc2)[C@H]1c1cccs1` [Compound 469, (3R,6S)-4-((1R,2R)-2-(4-fluorophenyl)cyclopropanecarbonyl)-6-phenyl-3-(thiophen-2-yl)piperazin-2-one] were 1060 nM and more than 10000 nM.
Taken in the same sequence, the figures for `O=C1N[C@@H](c2ccccc2)CN(C(=O)c2cc(-c3ccc(F)cc3)on2)[C@H]1c1cccs1` [Compound 471, (3R,6S)-4-(5-(4-fluorophenyl)isoxazole-3-carbonyl)-6-phenyl-3-(thiophen-2-yl)piperazin-2-one] were 570 nM and more than 10000 nM.
For the molecule `O=C1N[C@@H](c2ccccc2)CN(C(=O)c2noc(-c3ccc(F)cc3)n2)[C@H]1c1cccs1` [Compound 472, (3R,6S)-4-(5-(4-fluorophenyl)-1,2,4-oxadiazole-3-carbonyl)-6-phenyl-3-(thiophen-2-yl)piperazin-2-one], the EC90 in the series with HCV Replicon 1b was 1200 nM. This molecule also displayed a CC90 at 8 days in series [1] of more than 10000 nM.
With `CC(C)C[C@H]1C(=O)N[C@H](C2CCOCC2)CN1C(=O)c1noc(-c2ccc(F)cc2)n1` [Compound 473, (3S,6R)-4-(5-(4-fluorophenyl)-1,2,4-oxadiazole-3-carbonyl)-3-isobutyl-6-(tetrahydro-2H-pyran-4-yl)piperazin-2-one], the concentration for an effect of 90% (EC90) with HCV Replicon 1b was more than 10000 nM. The molecule also returned a CC90 at 8 days in series [1] of more than 10000 nM.
As for `CC(C)C[C@H]1C(=O)N[C@@H](C2CCOCC2)CN1C(=O)c1noc(-c2ccc(F)cc2)n1` [Compound 474, (3S,6S)-4-(5-(4-fluorophenyl)-1,2,4-oxadiazole-3-carbonyl)-3-isobutyl-6-(tetrahydro-2H-pyran-4-yl)piperazin-2-one], the EC90 in the series on HCV Replicon 1b stood at 350 nM. The same molecule came in with a CC90 at 8 days in series [1] of more than 10000 nM.
For `CC(C)C[C@H]1C(=O)N[C@H](C2CCOCC2)CN1C(=O)[C@@H]1C[C@H]1c1ccc(F)cc1` [Compound 475, (3S,6R)-4-((1R,2R)-2-(4-fluorophenyl)cyclopropanecarbonyl)-3-isobutyl-6-(tetrahy-dro-2H-pyran-4-yl)piperazin-2-one], in the series with HCV Replicon 1b, the EC90 is more than 10000 nM. Further, in series [1], the CC90 at 8 days is more than 10000 nM.
With `CC(C)C[C@H]1C(=O)N[C@@H](C2CCOCC2)CN1C(=O)[C@@H]1C[C@H]1c1ccc(F)cc1` [Compound 476, (3S,6S)-4-((1R,2R)-2-(4-fluoro-phenyl)cyclopropanecarbonyl)-3-isobutyl-6-(tetrahydro-2H-pyran-4-yl)piperazin-2-one], the EC90 with HCV Replicon 1b worked out at 230 nM. Further, the CC90 at 8 days in series [1] is more than 10000 nM.
For `CC(C)C[C@H]1C(=O)N[C@H](c2ccco2)CN1C(=O)c1cc(-c2ccc(F)cc2)on1` [Compound 483, (3S,6S)-4-(5-(4-fluorophenyl)isoxazole-3-carbonyl)-6-(furan-2-yl)-3-isobutyl-piperazin-2-one] the same measures were more than 10000 nM and more than 10000 nM.
